Assay results from US20210284618A1, “FURANOCHALCONES AS INHIBITORS OF CYP1A1, CYP1A2 AND CYP1B1 FOR CANCER CHEMOPREVENTION” (Council of Scientific & Industrial Research, priority 2016, published 2021).

Key:
CYP1A1 [1] = biological target: T1, CYP1A1 (Homo sapiens, UniProt P04798); assay: CYP1A1 inhibition in HEK293 cells transfected with pcDNA3.1/CYP1A1 (live cells); assay type: cell-based; conditions: for inhibition at 10 μM: human, HEK293 cells transfected with pcDNA3.1/CYP1A1 (live cells), probe EROD (5 μM), % inhibition of CYP1A1 in HEK293 cells at 10 μM, 5 μM EROD
T1 construct: host or cells: yeast microsomes (Saccharosomes)
T1 sequence (P04798 1-512): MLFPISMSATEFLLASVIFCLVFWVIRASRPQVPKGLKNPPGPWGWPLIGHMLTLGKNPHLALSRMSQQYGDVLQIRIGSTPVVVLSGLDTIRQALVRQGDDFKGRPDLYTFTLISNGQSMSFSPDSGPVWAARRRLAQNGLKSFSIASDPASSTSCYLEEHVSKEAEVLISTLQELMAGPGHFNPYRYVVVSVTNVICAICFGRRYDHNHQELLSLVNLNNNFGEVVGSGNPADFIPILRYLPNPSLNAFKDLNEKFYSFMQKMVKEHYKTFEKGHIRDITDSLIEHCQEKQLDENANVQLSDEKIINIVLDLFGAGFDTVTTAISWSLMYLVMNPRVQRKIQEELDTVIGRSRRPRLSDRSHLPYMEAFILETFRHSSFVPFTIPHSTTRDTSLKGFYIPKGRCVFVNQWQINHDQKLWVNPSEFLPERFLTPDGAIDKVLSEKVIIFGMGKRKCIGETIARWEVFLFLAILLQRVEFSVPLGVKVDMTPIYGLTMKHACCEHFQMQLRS
Description: Example 26. In-vitro CYP450 inhibition in HEK293 cells transfected with pcDNA3.1/CYP1A1 against 5 μM EROD. […] The HEK293 cells used here was procured from ‘European Collection of Authenticated Cell Cultures’ (catalog number. ECACC 85120602).

CYP1B1 [2] = biological target: T2, CYP1B1 (Homo sapiens, UniProt Q16678); assay: In-vitro CYP450 1B1 enzyme inhibition in Saccharosomes; assay type: biochemical; parameters: purchased CYP Design Ltd; host or cells: yeast microsomes (Saccharosomes); conditions: human, Saccharosomes (yeast-derived) with recombinant CYP1B1, probe 7-ethoxyresorufin (5 μl of 0.1 mM), % inhibition of CYP1B1 in Saccharosomes at 10 μM, 10 μM test compound, 7-ethoxyresorufin
T2 sequence (Q16678 1-543): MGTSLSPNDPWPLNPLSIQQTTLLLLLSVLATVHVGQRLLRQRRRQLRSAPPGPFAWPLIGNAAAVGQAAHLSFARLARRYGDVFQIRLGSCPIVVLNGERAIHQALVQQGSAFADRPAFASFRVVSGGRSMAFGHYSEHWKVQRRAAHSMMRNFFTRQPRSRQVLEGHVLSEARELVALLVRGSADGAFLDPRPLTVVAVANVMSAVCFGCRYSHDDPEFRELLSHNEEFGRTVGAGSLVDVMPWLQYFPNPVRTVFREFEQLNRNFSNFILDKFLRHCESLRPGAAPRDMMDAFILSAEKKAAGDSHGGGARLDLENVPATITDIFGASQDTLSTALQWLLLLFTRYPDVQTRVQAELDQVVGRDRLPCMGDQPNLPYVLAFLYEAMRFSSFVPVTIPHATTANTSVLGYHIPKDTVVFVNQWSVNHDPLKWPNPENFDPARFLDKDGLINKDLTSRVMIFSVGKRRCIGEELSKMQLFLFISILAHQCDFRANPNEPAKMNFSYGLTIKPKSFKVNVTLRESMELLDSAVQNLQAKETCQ
Description: Example 24. In-vitro CYP450 1B1 enzyme inhibition in Saccharosomes™: Regenerating system consists of: 5 μl Solution A (183 mg of NADP++183 mg of glucose-6-phosphate+654 μl of 1.0 M magnesium chloride solution+9.15 ml of sterile ultra-pure water)+1 μl Solution B (250 Units of glucose-6-phosphate dehydrogenase+6.25 ml of 5 mM sodium citrate; mixed in a tube and made up to 10 ml with sterile ultra-pure water)+39 μl 0.2 M Kpi (0.6 ml of 1.0M K2HPO4+9.4 ml of 1.0 M KH2PO4 were mixed and made up to 50 ml with sterile ultra-pure water)+5 μl potential inhibitory compound.
(§1) Example 25. IC50 determination for best compound against CYP1A1, CYP1B1 and other CYPs in Saccharosomes. Compounds were serially diluted to six different concentrations with 10% DMSO in a Sero-Well white microplate. The experiment was performed in a similar way as described above in examples 23 and 24.

CYP1B1 [3] = biological target: T2, CYP1B1; assay: CYP1B1 inhibition in live human cells (HEK293); assay type: cell-based
CYP1A1 [4] = biological target: T1, CYP1A1; assay: In-vitro CYP450 1A1 enzyme inhibition in Saccharosomes; assay type: biochemical; conditions: human, Saccharosomes containing CYP1A1, pH 7.4, probe ethoxyresorufin (5 μM), % inhibition of CYP1A1 in Saccharosomes at 10 μM, 10 μM test compound, 5 μM ethoxyresorufin
Description: Example 23. In-vitro CYP450 1A1 enzyme inhibition in Saccharosomes™: The screening method utilizes 384-well microplates to rapidly ascertain relative percentage inhibition of CYP1A1 by a library of compounds. Each reaction was performed in black, clear-bottomed 384-well microplates. A reaction volume of 50 μl comprised of 0.5 pmol of the cytochrome P450 CYP1A1 (Saccharosomes), 5 μM of ethoxyresorufin substrate (which contributes 0.05% DMSO to the well), 10 μM of potential inhibitor test article (which contributes 0.5% DMSO to the well), A P450 reductase NADPH regenerating system (1.3 mM NADP+, 3.3 mM glucose-6-0.02 units phosphate and glucose-6-Phosphate dehydrogenase), potassium phosphate buffer (final well concentration 100 mM, pH 7.4) and water. Very small quantities of magnesium chloride and sodium citrate are added to the NADPH regenerating system, in line with standard published protocols. The potential inhibitor (test article) was pre-incubated with CYP1A1 of at least 20 minutes at 30° C. After this period, the remainder of the reagents required in the assay was added to initiate the process. The reaction mixture was incubated for another 20 minutes at 30° C. The reaction was stopped by adding an 80% acetonitrile, 20% 0.5 M Tris solution. The reactions were monitored using the Biotek Synergy HT plate reader by measuring the endpoint reaction at Excitation 530/(25 bandwidth) & Emission 590/(20 bandwidth) using a gain/sensitivity setting of 60. The mean of the quadruplicates of the negative control (solvent inactivated CYP1A1) was deducted from the mean of potential inhibitor (test article) samples. The percentage was then derived relative to the mean of the wells without inhibitor.
as §1

SMILES: COc1c(C(=O)/C=C/c2ccc(F)cc2)c(O)c(OC)c2occc12 [Compound 6, 3-(4,7-dimethoxy-6-hydroxybenzofuran-5-yl)-1-(4-fluorophenyl)-3-oxopropene]
- IC50 (CYP1A1 [1]): 480 nM
- inhibition at 10 μM (CYP1A1 [1]): 79.6%
- inhibition at 10 μM (CYP1B1 [2]): 49.5%
- IC50 (CYP1B1 [3]): 1320 nM
- inhibition at 20 min, 10 μM (CYP1A1 [4]): > 80%

SMILES: CCOc1ccc(Br)cc1/C=C/C(=O)c1c(O)c(OC)c2occc2c1OC [Compound 11, 3-(4,7-dimethoxy-6-hydroxybenzofuran-5-yl)-1-(2-ethoxy,5-bromophenyl)-3-oxopropene]
- inhibition at 10 μM (CYP1A1 [1]): 31.7%
- melting point: 260 to 261 °C
- inhibition at 20 min, 10 μM (CYP1A1 [4]): 64.3%

SMILES: COc1c(C(=O)/C=C/c2ccccc2Cl)c(O)c(OC)c2occc12 [Compound 12, 3-(4,7-dimethoxy-6-hydroxybenzofuran-5-yl)-1-(2-chlorophenyl)-3-oxopropene]
- inhibition at 10 μM (CYP1A1 [1]): 19.5%
- melting point: 160 to 161 °C
- inhibition at 20 min, 10 μM (CYP1A1 [4]): 23.6%

SMILES: COc1c(C(=O)/C=C/c2c(F)c(F)c(F)c(F)c2F)c(O)c(OC)c2occc12 [Compound 15, 3-(4,7-dimethoxy-6-hydroxybenzofuran-5-yl)-1-(2,3,4,5,6 pentafluorophenyl)-3-oxopropene]
- inhibition at 10 μM (CYP1A1 [1]): 71.6%
- melting point: 300 to 301 °C
- inhibition at 20 min, 10 μM (CYP1A1 [4]): 21.9%
